Data taken from PubChem BioAssay (NCI).
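Cultured in 96-well plates, cells were exposed to test compound for 48 hours across five concentrations. At the TGI there is no net growth.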

What follows are compounds tested on DLD-1 colon (assay: NCI tumour cell line growth inhibition, 48 h).

SMILES	TGI [µM]
CC1(C)COC(c2cccnc2/C=N/O)=N1	> 100
CCOC(=O)C1(C#N)C(c2ccccc2)CC(O)(c2ccc(OC)cc2)C(C(=O)c2ccc(OC)cc2)C1c1ccccc1 (stereo unspecified)	> 100
COc1ccc(C2C(Cl)C(=O)N2n2cnc3ccccc3c2=O)cc1 (stereo unspecified)	> 100
CC(=O)c1cccc(NC(=O)C(=O)NNc2n[nH]c(=S)n2N)c1	31.6
COc1cc2cc3c4c(cc(OC)c(OC)c4c2cc1OC)CCN3C(=O)OCCN1CCNCC1	29.1
O=c1[nH]c2c(nc1NC13CC4CC(CC(C4)C1)C3)c(=O)oc1ccccc12	> 100
COc1cc(C(Cc2ccccc2)NC(C)=O)oc(=O)c1 (stereo unspecified)	> 100
CCCN=C(N)NC#N	> 100
O=c1[nH]c(=O)n(C2OC(CO)C(O)C2O)cc1NN=NCc1ccccc1 (stereo unspecified)	> 77.4

These compounds were tested on DMS 114 small cell lung (assay: NCI tumour cell line growth inhibition, 48 h).

SMILES	TGI [µM]
CCOC(=O)C1(C#N)C(c2ccccc2)CC(O)(c2ccc(OC)cc2)C(C(=O)c2ccc(OC)cc2)C1c1ccccc1 (stereo unspecified)	> 100
COc1ccc(C2C(Cl)C(=O)N2n2cnc3ccccc3c2=O)cc1 (stereo unspecified)	> 100
CC(=O)c1cccc(NC(=O)C(=O)NNc2n[nH]c(=S)n2N)c1	3.93
O=c1[nH]c2c(nc1NC13CC4CC(CC(C4)C1)C3)c(=O)oc1ccccc12	> 100
COc1cc(C(Cc2ccccc2)NC(C)=O)oc(=O)c1 (stereo unspecified)	> 100
CCCN=C(N)NC#N	35.8
O=c1[nH]c(=O)n(C2OC(CO)C(O)C2O)cc1NN=NCc1ccccc1 (stereo unspecified)	99.1

The compounds below were run on DMS 273 small cell lung (assay: NCI tumour cell line growth inhibition, 48 h).

SMILES	TGI [µM]
CC1(C)COC(c2cccnc2/C=N/O)=N1	> 100
CCOC(=O)C1(C#N)C(c2ccccc2)CC(O)(c2ccc(OC)cc2)C(C(=O)c2ccc(OC)cc2)C1c1ccccc1 (stereo unspecified)	> 100
COc1ccc(C2C(Cl)C(=O)N2n2cnc3ccccc3c2=O)cc1 (stereo unspecified)	> 100
Cc1cc(N)c(C)c2c1[nH]c1ccc(O)cc12	> 100
CC(=O)c1cccc(NC(=O)C(=O)NNc2n[nH]c(=S)n2N)c1	18.7
COc1cc2cc3c4c(cc(OC)c(OC)c4c2cc1OC)CCN3C(=O)OCCN1CCNCC1	26.5
O=c1[nH]c2c(nc1NC13CC4CC(CC(C4)C1)C3)c(=O)oc1ccccc12	> 100
COc1cc(C(Cc2ccccc2)NC(C)=O)oc(=O)c1 (stereo unspecified)	> 100
CCCN=C(N)NC#N	> 100
O=c1[nH]c(=O)n(C2OC(CO)C(O)C2O)cc1NN=NCc1ccccc1 (stereo unspecified)	> 100

The compounds below were run on HOP-18 NSCLC (assay: NCI tumour cell line growth inhibition, 48 h).

SMILES	TGI [µM]
CC1(C)COC(c2cccnc2/C=N/O)=N1	> 100
CCOC(=O)C1(C#N)C(c2ccccc2)CC(O)(c2ccc(OC)cc2)C(C(=O)c2ccc(OC)cc2)C1c1ccccc1 (stereo unspecified)	> 100
COc1ccc(C2C(Cl)C(=O)N2n2cnc3ccccc3c2=O)cc1 (stereo unspecified)	> 100
Cc1cc(N)c(C)c2c1[nH]c1ccc(O)cc12	> 100
CC(=O)c1cccc(NC(=O)C(=O)NNc2n[nH]c(=S)n2N)c1	24.2
COc1cc2cc3c4c(cc(OC)c(OC)c4c2cc1OC)CCN3C(=O)OCCN1CCNCC1	30.7
CCCN=C(N)NC#N	> 100
O=c1[nH]c(=O)n(C2OC(CO)C(O)C2O)cc1NN=NCc1ccccc1 (stereo unspecified)	> 100

What follows are compounds tested on KM20L2 colon (assay: NCI tumour cell line growth inhibition, 48 h).

SMILES	TGI [µM]
CC1(C)COC(c2cccnc2/C=N/O)=N1	> 100
CCOC(=O)C1(C#N)C(c2ccccc2)CC(O)(c2ccc(OC)cc2)C(C(=O)c2ccc(OC)cc2)C1c1ccccc1 (stereo unspecified)	> 100
COc1ccc(C2C(Cl)C(=O)N2n2cnc3ccccc3c2=O)cc1 (stereo unspecified)	> 100
CC(=O)c1cccc(NC(=O)C(=O)NNc2n[nH]c(=S)n2N)c1	46.1
COc1cc2cc3c4c(cc(OC)c(OC)c4c2cc1OC)CCN3C(=O)OCCN1CCNCC1	24.9
O=c1[nH]c2c(nc1NC13CC4CC(CC(C4)C1)C3)c(=O)oc1ccccc12	> 100
COc1cc(C(Cc2ccccc2)NC(C)=O)oc(=O)c1 (stereo unspecified)	> 100
CCCN=C(N)NC#N	> 100
O=c1[nH]c(=O)n(C2OC(CO)C(O)C2O)cc1NN=NCc1ccccc1 (stereo unspecified)	> 100

The compounds below were run on LXFL 529 NSCLC (assay: NCI tumour cell line growth inhibition, 48 h).

SMILES	TGI [µM]
CC1(C)COC(c2cccnc2/C=N/O)=N1	> 100
CCOC(=O)C1(C#N)C(c2ccccc2)CC(O)(c2ccc(OC)cc2)C(C(=O)c2ccc(OC)cc2)C1c1ccccc1 (stereo unspecified)	> 100
COc1ccc(C2C(Cl)C(=O)N2n2cnc3ccccc3c2=O)cc1 (stereo unspecified)	> 100
CC(=O)c1cccc(NC(=O)C(=O)NNc2n[nH]c(=S)n2N)c1	22.5
COc1cc2cc3c4c(cc(OC)c(OC)c4c2cc1OC)CCN3C(=O)OCCN1CCNCC1	28.3
O=c1[nH]c2c(nc1NC13CC4CC(CC(C4)C1)C3)c(=O)oc1ccccc12	> 100
COc1cc(C(Cc2ccccc2)NC(C)=O)oc(=O)c1 (stereo unspecified)	> 100
CCCN=C(N)NC#N	> 100
O=c1[nH]c(=O)n(C2OC(CO)C(O)C2O)cc1NN=NCc1ccccc1 (stereo unspecified)	> 100

Each compound was assayed on M19-MEL melanoma (assay: NCI tumour cell line growth inhibition, 48 h).

SMILES	TGI [µM]
CC1(C)COC(c2cccnc2/C=N/O)=N1	> 100
CCOC(=O)C1(C#N)C(c2ccccc2)CC(O)(c2ccc(OC)cc2)C(C(=O)c2ccc(OC)cc2)C1c1ccccc1 (stereo unspecified)	> 100
COc1ccc(C2C(Cl)C(=O)N2n2cnc3ccccc3c2=O)cc1 (stereo unspecified)	> 100
Cc1cc(N)c(C)c2c1[nH]c1ccc(O)cc12	> 100
CC(=O)c1cccc(NC(=O)C(=O)NNc2n[nH]c(=S)n2N)c1	2.36
COc1cc2cc3c4c(cc(OC)c(OC)c4c2cc1OC)CCN3C(=O)OCCN1CCNCC1	19.6
O=c1[nH]c2c(nc1NC13CC4CC(CC(C4)C1)C3)c(=O)oc1ccccc12	> 100
COc1cc(C(Cc2ccccc2)NC(C)=O)oc(=O)c1 (stereo unspecified)	> 100
CCCN=C(N)NC#N	> 100
O=c1[nH]c(=O)n(C2OC(CO)C(O)C2O)cc1NN=NCc1ccccc1 (stereo unspecified)	> 100

These compounds were tested on RXF-631 renal (assay: NCI tumour cell line growth inhibition, 48 h).

SMILES	TGI [µM]
CC1(C)COC(c2cccnc2/C=N/O)=N1	> 100
CC(=O)c1cccc(NC(=O)C(=O)NNc2n[nH]c(=S)n2N)c1	10.9
O=c1[nH]c(=O)n(C2OC(CO)C(O)C2O)cc1NN=NCc1ccccc1 (stereo unspecified)	> 100

These compounds were tested on SNB-78 CNS (assay: NCI tumour cell line growth inhibition, 48 h).

SMILES	TGI [µM]
CC1(C)COC(c2cccnc2/C=N/O)=N1	> 100
CCOC(=O)C1(C#N)C(c2ccccc2)CC(O)(c2ccc(OC)cc2)C(C(=O)c2ccc(OC)cc2)C1c1ccccc1 (stereo unspecified)	> 100
COc1ccc(C2C(Cl)C(=O)N2n2cnc3ccccc3c2=O)cc1 (stereo unspecified)	> 100
Cc1cc(N)c(C)c2c1[nH]c1ccc(O)cc12	> 100
CC(=O)c1cccc(NC(=O)C(=O)NNc2n[nH]c(=S)n2N)c1	35
COc1cc2cc3c4c(cc(OC)c(OC)c4c2cc1OC)CCN3C(=O)OCCN1CCNCC1	31.4
CCCN=C(N)NC#N	> 100
O=c1[nH]c(=O)n(C2OC(CO)C(O)C2O)cc1NN=NCc1ccccc1 (stereo unspecified)	> 100

The compounds below were run on XF 498 CNS (assay: NCI tumour cell line growth inhibition, 48 h).

SMILES	TGI [µM]
CC1(C)COC(c2cccnc2/C=N/O)=N1	> 100
COc1ccc(C2C(Cl)C(=O)N2n2cnc3ccccc3c2=O)cc1 (stereo unspecified)	> 100
Cc1cc(N)c(C)c2c1[nH]c1ccc(O)cc12	> 100
CC(=O)c1cccc(NC(=O)C(=O)NNc2n[nH]c(=S)n2N)c1	25.7
COc1cc2cc3c4c(cc(OC)c(OC)c4c2cc1OC)CCN3C(=O)OCCN1CCNCC1	29.4
O=c1[nH]c2c(nc1NC13CC4CC(CC(C4)C1)C3)c(=O)oc1ccccc12	> 100
COc1cc(C(Cc2ccccc2)NC(C)=O)oc(=O)c1 (stereo unspecified)	> 100
O=c1[nH]c(=O)n(C2OC(CO)C(O)C2O)cc1NN=NCc1ccccc1 (stereo unspecified)	> 100
